SMILES strings stand for the structures. Bounds are passed on as bounds.

Data on 14 compounds can be found in patent publication US9376425B2, “Heterocyclic compounds as MDM2 inhibitors for the treatment of cancer” (AMGEN INC., priority 2011, dated 2016).

The assay deals with T1, human MDM2 (GST-hMDM2 1-188), interaction with biotinylated-p53 (1-83) (Homo sapiens, UniProt Q00987).
T1 construct: Amino acid residues 1-188 of human MDM2 were expressed; made in house; host or cells: Escherichia coli
T1 sequence (Q00987 1-188): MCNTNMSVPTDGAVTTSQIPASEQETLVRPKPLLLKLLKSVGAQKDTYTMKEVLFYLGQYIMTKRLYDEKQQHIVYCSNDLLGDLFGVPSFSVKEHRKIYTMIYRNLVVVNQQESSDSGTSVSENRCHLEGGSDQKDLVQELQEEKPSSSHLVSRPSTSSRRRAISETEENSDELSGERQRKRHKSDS
Briefly: improved HTRF assay (HTRF2 assay), inhibition of HDM2-p53 interaction. Type of assay: binding. The note with it: 0.2 nM GST-hMDM2, 0.5 nM biotinylated-p53, 100 mM KF. In short, it runs like this: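 Time-resolved fluorescence (HTRF) read after >4 h equilibration with SA-XLent/anti-GST cryptate/KF detection reagents. Reaction: compound plus GST-hMDM2 for 20 min at room temperature, then E. coli-expressed biotinylated p53 residues 1-83 for 60 min, 2% DMSO final. Inhibition expressed versus nutlin-3.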
In the case of `CC[C@]1(CC(=O)O)O[C@H](c2cccc(Cl)c2)[C@@H](c2ccc(Cl)cc2)N([C@@H](CC(F)(F)F)CS(=O)(=O)C(C)(C)C)C1=O` (single isomer, unassigned) [Example 343, 2-((2R,5R,6R)-4-((S)-1-(tert-Butylsulfonyl)-4,4,4-trifluorobutan-2-yl)-6-(3-chlorophenyl)-5-(4-chlorophenyl)-2-ethyl-3-oxomorpholin-2-yl)acetic acid or 2-((2S,5R,6R)-4-((S)-1-(tert-butylsulfonyl)-4,4,4-trifluorobutan-2-yl)-6-(3-chlorophenyl)-5-(4-chlorophenyl)-2-ethyl-3-oxomorpholin-2-yl)acetic acid], the concentration for half-maximal inhibition (IC50) was 1 nM.
In turn, `CC(C)(C)S(=O)(=O)C[C@H](C1CC1)N1C(=O)[C@@H](CC(=O)NCC(F)(F)F)O[C@H](c2cccc(Cl)c2)[C@H]1c1ccc(Cl)cc1` (single isomer, unassigned) [Example 346, 2-((2R,5R,6R)-4-((S)-2-(tert-Butylsulfonyl)-1-cyclopropylethyl)-6-(3-chlorophenyl)-5-(4-chlorophenyl)-3-oxomorpholin-2-yl)-N-(2,2,2-trifluoroethyl)acetamide or 2-((2S,5R,6R)-4-((S)-2-(tert-butylsulfonyl)-1-cyclopropylethyl)-6-(3-chlorophenyl)-5-(4-chlorophenyl)-3-oxomorpholin-2-yl)-N-(2,2,2-trifluoroethyl)acetamide] showed a 50% inhibitory concentration (IC50) of 21 nM.
On to `CC(C)(C)S(=O)(=O)C[C@H](C1CC1)N1C(=O)[C@@H](CC(=O)NCC(F)(F)F)O[C@H](c2cccc(Cl)c2)[C@H]1c1ccc(Cl)cc1` (single isomer, unassigned) [Example 347, 2-((2R,5R,6R)-4-((S)-2-(tert-Butylsulfonyl)-1-cyclopropylethyl)-6-(3-chlorophenyl)-5-(4-chlorophenyl)-3-oxomorpholin-2-yl)-N-(2,2,2-trifluoroethyl)acetamide or 2-((2S,5R,6R)-4-((S)-2-(tert-butylsulfonyl)-1-cyclopropylethyl)-6-(3-chlorophenyl)-5-(4-chlorophenyl)-3-oxomorpholin-2-yl)-N-(2,2,2-trifluoroethyl)acetamide], for which the 50% inhibitory concentration (IC50) was determined as 4 nM.
The same measure for `CC(C)(C)S(=O)(=O)C[C@H](C1CC1)N1C(=O)[C@@H](CC(=O)NCC#N)O[C@H](c2cccc(Cl)c2)[C@H]1c1ccc(Cl)cc1` (single isomer, unassigned) [Example 348, 2-((2R,5R,6R)-4-((S)-2-(tert-Butylsulfonyl)-1-cyclopropylethyl)-6-(3-chlorophenyl)-5-(4-chlorophenyl)-3-oxomorpholin-2-yl)-N-(cyanomethyl)acetamide or 2-((2S,5R,6R)-4-((S)-2-(tert-butylsulfonyl)-1-cyclopropylethyl)-6-(3-chlorophenyl)-5-(4-chlorophenyl)-3-oxomorpholin-2-yl)-N-(cyanomethyl)acetamide]: 5 nM; for `CC(C)(C)S(=O)(=O)C[C@H](C1CC1)N1C(=O)[C@@H](CC(=O)NCC#N)O[C@H](c2cccc(Cl)c2)[C@H]1c1ccc(Cl)cc1` (single isomer, unassigned) [Example 349, 2-((2R,5R,6R)-4-((S)-2-(tert-Butylsulfonyl)-1-cyclopropylethyl)-6-(3-chlorophenyl)-5-(4-chlorophenyl)-3-oxomorpholin-2-yl)-N-(cyanomethyl)acetamide or 2-((2S,5R,6R)-4-((S)-2-(tert-butylsulfonyl)-1-cyclopropylethyl)-6-(3-chlorophenyl)-5-(4-chlorophenyl)-3-oxomorpholin-2-yl)-N-(cyanomethyl)acetamide]: 1 nM.
Next, `CC(C)(C)S(=O)(=O)C[C@H](C1CC1)N1C(=O)[C@@H](CC(=O)Nc2ccccc2)O[C@H](c2cccc(Cl)c2)[C@H]1c1ccc(Cl)cc1` (single isomer, unassigned) [Example 350, 2-((2R,5R,6R)-4-((S)-2-(tert-Butylsulfonyl)-1-cyclopropylethyl)-6-(3-chlorophenyl)-5-(4-chlorophenyl)-3-oxomorpholin-2-yl)-N-phenylacetamide or 2-42S,5R,6R)-4-((S)-2-(tert-butylsulfonyl)-1-cyclopropylethyl)-6-(3-chlorophenyl)-5-(4-chlorophenyl)-3-oxomorpholin-2-yl)-N-phenylacetamide]: 16 nM; `CC(C)(C)S(=O)(=O)C[C@H](C1CC1)N1C(=O)[C@@H](CC(=O)Nc2ccccc2)O[C@H](c2cccc(Cl)c2)[C@H]1c1ccc(Cl)cc1` (single isomer, unassigned) [Example 351, 2-((2R,5R,6R)-4-((S)-2-(tert-Butylsulfonyl)-1-cyclopropylethyl)-6-(3-chlorophenyl)-5-(4-chlorophenyl)-3-oxomorpholin-2-yl)-N-phenylacetamide or 2-((2S,5R,6R)-4-((S)-2-(tert-butylsulfonyl)-1-cyclopropylethyl)-6-(3-chlorophenyl)-5-(4-chlorophenyl)-3-oxomorpholin-2-yl)-N-phenylacetamide]: 4 nM.
Compound `CC(C)(C)S(=O)(=O)C[C@H](C1CC1)N1C(=O)[C@@H](CC(=O)Nc2ccccc2F)O[C@H](c2cccc(Cl)c2)[C@H]1c1ccc(Cl)cc1` (single isomer, unassigned) [Example 352, 2-((2R,5R,6R)-4-((S)-2-(tert-Butylsulfonyl)-1-cyclopropylethyl)-6-(3-chlorophenyl)-5-(4-chlorophenyl)-3-oxomorpholin-2-yl)-N-(2-fluorophenyl)acetamide or 2-((2S,5R,6R)-4-((S)-2-(tert-butylsulfonyl)-1-cyclopropylethyl)-6-(3-chlorophenyl)-5-(4-chlorophenyl)-3-oxomorpholin-2-yl)-N-(2-fluorophenyl)acetamide] yielded an IC50 of 25 nM.
Turning to `CC(C)(C)S(=O)(=O)C[C@H](C1CC1)N1C(=O)[C@@H](CC(=O)Nc2ccccc2F)O[C@H](c2cccc(Cl)c2)[C@H]1c1ccc(Cl)cc1` (single isomer, unassigned) [Example 353, 2-((2R,5R,6R)-4-((S)-2-(tert-Butylsulfonyl)-1-cyclopropylethyl)-6-(3-chlorophenyl)-5-(4-chlorophenyl)-3-oxomorpholin-2-yl)-N-(2-fluorophenyl)acetamide or 2-((2S,5R,6R)-4-((S)-2-(tert-butylsulfonyl)-1-cyclopropylethyl)-6-(3-chlorophenyl)-5-(4-chlorophenyl)-3-oxomorpholin-2-yl)-N-(2-fluorophenyl)acetamide], the half-maximal inhibitory concentration (IC50) is 9 nM.
For the compound `CC(C)(C)S(=O)(=O)C[C@H](C1CC1)N1C(=O)[C@@H](CC(=O)Nc2ccccn2)O[C@H](c2cccc(Cl)c2)[C@H]1c1ccc(Cl)cc1` (single isomer, unassigned) [Example 354, 2-((2R,5R,6R)-4-((S)-2-(tert-Butylsulfonyl)-1-cyclopropylethyl)-6-(3-chlorophenyl)-5-(4-chlorophenyl)-3-oxomorpholin-2-yl)-N-(pyridin-2-yl)acetamide or 2-((2S,5R,6R)-4-((S)-2-(tert-butylsulfonyl)-1-cyclopropylethyl)-6-(3-chlorophenyl)-5-(4-chlorophenyl)-3-oxomorpholin-2-yl)-N-(pyridin-2-yl)acetamide], the IC50 came to 2 nM.
Next, `CC(C)(C)S(=O)(=O)C[C@H](C1CC1)N1C(=O)[C@@H](CC(=O)Nc2ccccn2)O[C@H](c2cccc(Cl)c2)[C@H]1c1ccc(Cl)cc1` (single isomer, unassigned) [Example 355, 2-((2R,5R,6R)-4-((S)-2-(tert-Butylsulfonyl)-1-cyclopropylethyl)-6-(3-chlorophenyl)-5-(4-chlorophenyl)-3-oxomorpholin-2-yl)-N-(pyridin-2-yl)acetamide or 2-((2S,5R,6R)-4-((S)-2-(tert-butylsulfonyl)-1-cyclopropylethyl)-6-(3-chlorophenyl)-5-(4-chlorophenyl)-3-oxomorpholin-2-yl)-N-(pyridin-2-yl)acetamide]: 4 nM.
In the case of `CC(C)(C)S(=O)(=O)C[C@H](C1CC1)N1C(=O)[C@@H](CC(N)=O)O[C@H](c2cccc(Cl)c2)[C@H]1c1ccc(Cl)cc1` (single isomer, unassigned) [Example 356, 2-((2R,5R,6R)-4-((S)-2-(tert-Butylsulfonyl)-1-cyclopropylethyl)-6-(3-chlorophenyl)-5-(4-chlorophenyl)-3-oxomorpholin-2-yl)acetamide or 2-((2S,5R,6R)-4-((S)-2-(tert-butylsulfonyl)-1-cyclopropylethyl)-6-(3-chlorophenyl)-5-(4-chlorophenyl)-3-oxomorpholin-2-yl)acetamide], half-maximal inhibition (IC50) was put at 10 nM.
Turning to `CC(C)(C)S(=O)(=O)C[C@H](C1CC1)N1C(=O)[C@@H](CC(N)=O)O[C@H](c2cccc(Cl)c2)[C@H]1c1ccc(Cl)cc1` (single isomer, unassigned) [Example 357, 2-((2R,5R,6R)-4-((S)-2-(tert-Butylsulfonyl)-1-cyclopropylethyl)-6-(3-chlorophenyl)-5-(4-chlorophenyl)-3-oxomorpholin-2-yl)acetamide or 2-((2S,5R,6R)-4-((S)-2-(tert-butylsulfonyl)-1-cyclopropylethyl)-6-(3-chlorophenyl)-5-(4-chlorophenyl)-3-oxomorpholin-2-yl)acetamide], the IC50 is 6 nM.
The same measure for `NC(=O)C[C@H]1O[C@H](c2cccc(Cl)c2)[C@@H](c2ccc(Cl)cc2)N([C@H](CN(c2c(F)cccc2F)S(=O)(=O)C2CC2)C2CC2)C1=O` (single isomer, unassigned) [Example 358, 2-((2R,5R,6R)-6-(3-Chlorophenyl)-5-(4-chlorophenyl)-4-((S)-1-cyclopropyl-2-(N-(2,6-difluorophenyl)cyclopropanesulfonamido)ethyl)-3-oxomorpholin-2-yl)acetamide or 2-((2S,5R,6R)-6-(3-chlorophenyl)-5-(4-chlorophenyl)-4-((S)-1-cyclopropyl-2-(N-(2,6-difluorophenyl)cyclopropanesulfonamido)ethyl)-3-oxomorpholin-2-yl)acetamide]: < 1 nM.
